16 compounds from ChEMBL document CHEMBL1201862, “PubChem BioAssay data set” (2004) can be followed below.

SMILES strings stand for the structures. “And” between values parts separate entries of the source, which are not always exact repeats. Equal values may be shown once. Where a name gives a salt, the structure may show the parent alone. The source made the active and inactive calls. Some results are limits rather than exact numbers.

For orientation: AC50 means the concentration at which the activity in the assay is half-maximal. Broadly, the IC50 is the point on the concentration scale where inhibition reaches its midpoint. As usually defined, the Ki is the dissociation constant of the complex between target and ligand, obtained from inhibition or displacement. For orientation: EC50 means the concentration at which the effect is half-maximal.

Experiment [1] is described as follows: off-target signal loss in HeLa-CEM21 co-culture – HeLa F-luc CTL cells, cherry-picked, counter-screen for HIV-1 Env fusion inhibitor project, dose response (AID 652040).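 Note: potency for signal decrease marking cytotoxic or nonspecific inhibition.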 It counts as functional, cell-based.
Experiment [2] in a line: viability loss in CEM21 cells – cell-based, plate reader, dry powder, cytotoxicity control, dose response (AID 687026). It is filed as functional.
Experiment [3] is described as follows: blockers of HIV-1 envelope-mediated cell-cell fusion – cherry-pick, dose response (AID 652057). It counts as functional, cell-based.
Experiment [4] is described as follows: inhibition of Env-driven cell fusion – HIV entry, plate reader, dry powder, dose response (AID 687023). It is filed as functional, cell-based.
Experiment [5] is described as follows: HIV-1 AD8 envelope cell-cell fusion blockers – cherry-pick, dose response (AID 652062).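 Note: luciferase signal from cell-cell fusion driven by HIV-1 clade B AD8 Env; potency is for inhibitors of fusion seen as a drop in luminescence.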 It counts as functional, cell-based.
Experiment [6] can be described thus: viability loss in CEM21 cells – cell-based, CellTiter-Glo luminescence, cherry-picked, cytotoxicity control for viral fusion inhibitor project, dose response (AID 652042).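 Note: potency for signal decrease meaning cytotoxicity.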 It counts as functional. (ATP-based viability assays read luminescence as a measure of living cells.)
Experiment [7] has as its target Potassium channel subfamily K member 3 (Homo sapiens, UniProt O14649). Description: inhibition of human KCNK3 channel flux – CHO cells, FluxOR thallium flux, SAR follow-up (AID 652212). It counts as functional.
The next experiment is described as follows: cells. The following applies: A549.
The target in experiment [8] is NAD-dependent protein deacylase sirtuin-5, mitochondrial (Homo sapiens, UniProt Q9NXA8). The experiment can be described thus: blockers of sirtuin-5 peptide desuccinylation – biochemical, fluorescence imaging, cherry-pick, set 6, dose response (AID 720597).
Chain of NAD-dependent protein deacylase sirtuin-5, mitochondrial (Q9NXA8 whole entry): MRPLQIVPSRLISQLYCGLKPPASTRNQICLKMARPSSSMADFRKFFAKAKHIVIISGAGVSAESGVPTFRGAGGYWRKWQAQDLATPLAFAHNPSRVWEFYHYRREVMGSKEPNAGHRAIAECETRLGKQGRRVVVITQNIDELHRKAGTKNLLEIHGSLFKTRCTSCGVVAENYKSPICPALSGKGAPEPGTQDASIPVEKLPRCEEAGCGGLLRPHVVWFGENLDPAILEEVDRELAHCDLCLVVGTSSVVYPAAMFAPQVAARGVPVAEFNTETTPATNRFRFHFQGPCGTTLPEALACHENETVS
Experiment [9] can be described thus: YAP1 overexpression rescue of CTGF inhibition – DLD1 cells, RT-qPCR, cherry-pick, mechanism study for YAP1 pathway inhibitor project, dose response (AID 1053127). It is filed as functional, cell-based. The following applies: DLD-1. (Quantitative PCR measures a nucleic acid by following its amplification.)
Experiment [10] can be described thus: viability loss in A549 lung cancer cells – cell-based, cherry-picks, […], cytotoxicity control, dose response (AID 1053119). It counts as functional.
The nature of experiment [11]: blockers of FN fibrillogenesis by fibroblasts – AH1F cells, Alexa488-FN fluorescence, cherry-picks, dose response (AID 1035475). It counts as functional, cell-based.
A further experiment has as its target fMet-Leu-Phe receptor (Homo sapiens, UniProt P21462). Description: formyl peptide receptor binders – dose response (AID 519). It is filed as functional.
Experiment [12] deals with T1, Oxysterols receptor LXR-beta (Homo sapiens, UniProt P55055).
T1 sequence (P55055 whole entry): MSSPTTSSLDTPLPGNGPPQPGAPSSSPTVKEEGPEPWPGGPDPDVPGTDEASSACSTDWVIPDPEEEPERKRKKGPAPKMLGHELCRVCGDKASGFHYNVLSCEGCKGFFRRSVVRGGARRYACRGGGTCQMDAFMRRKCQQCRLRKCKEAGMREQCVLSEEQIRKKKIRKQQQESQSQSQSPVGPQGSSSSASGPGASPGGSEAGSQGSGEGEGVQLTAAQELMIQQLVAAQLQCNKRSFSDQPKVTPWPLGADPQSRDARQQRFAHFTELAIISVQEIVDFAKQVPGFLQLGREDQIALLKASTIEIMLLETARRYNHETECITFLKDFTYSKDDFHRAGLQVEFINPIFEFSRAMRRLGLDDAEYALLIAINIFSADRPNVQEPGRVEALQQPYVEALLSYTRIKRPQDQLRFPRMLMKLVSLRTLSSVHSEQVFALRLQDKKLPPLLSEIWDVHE
It counts as functional, cell-based.

The target in experiment [13] is Acyl-protein thioesterase 1 (Homo sapiens, UniProt O75608). Description: Late stage assay provider results from the probe development effort to identify selective inhibitors of LYPLA1: fluorescence-based biochemical dose-response assay.
Chain of Acyl-protein thioesterase 1 (O75608 whole entry): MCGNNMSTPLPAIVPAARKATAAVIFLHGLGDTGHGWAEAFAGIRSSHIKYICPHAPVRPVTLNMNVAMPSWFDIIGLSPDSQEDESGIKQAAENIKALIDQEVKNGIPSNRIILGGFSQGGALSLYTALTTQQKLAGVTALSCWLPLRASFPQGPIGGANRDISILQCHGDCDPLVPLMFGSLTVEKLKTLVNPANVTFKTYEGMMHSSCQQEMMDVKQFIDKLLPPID
Experiment [14] in a line: A cytotoxicity screen of small molecule inhibitors of the PhoP region in Salmonella typhi identified in the primary screen. [Related pubchem assays: 1850, 1864, 1985 ]. It is filed as functional.
Experiment [15] in a line: inhibition of ADAM10 peptide cleavage – biochemical, FRET peptide substrate, recombinant human ADAM10, selectivity assay for ADAM17 exosite inhibitor project, dose response (AID 743259).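 Note: ADAM10 enzyme cleaving a FRET peptide substrate.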
For experiment [16], the target named is T2, Disintegrin and metalloproteinase domain-containing protein 17 (Homo sapiens, UniProt P78536). Description: exosite inhibitors of ADAM17, dose response, biochemical (AID 743260).
T2 sequence (P78536 whole entry, the tested form may be a part): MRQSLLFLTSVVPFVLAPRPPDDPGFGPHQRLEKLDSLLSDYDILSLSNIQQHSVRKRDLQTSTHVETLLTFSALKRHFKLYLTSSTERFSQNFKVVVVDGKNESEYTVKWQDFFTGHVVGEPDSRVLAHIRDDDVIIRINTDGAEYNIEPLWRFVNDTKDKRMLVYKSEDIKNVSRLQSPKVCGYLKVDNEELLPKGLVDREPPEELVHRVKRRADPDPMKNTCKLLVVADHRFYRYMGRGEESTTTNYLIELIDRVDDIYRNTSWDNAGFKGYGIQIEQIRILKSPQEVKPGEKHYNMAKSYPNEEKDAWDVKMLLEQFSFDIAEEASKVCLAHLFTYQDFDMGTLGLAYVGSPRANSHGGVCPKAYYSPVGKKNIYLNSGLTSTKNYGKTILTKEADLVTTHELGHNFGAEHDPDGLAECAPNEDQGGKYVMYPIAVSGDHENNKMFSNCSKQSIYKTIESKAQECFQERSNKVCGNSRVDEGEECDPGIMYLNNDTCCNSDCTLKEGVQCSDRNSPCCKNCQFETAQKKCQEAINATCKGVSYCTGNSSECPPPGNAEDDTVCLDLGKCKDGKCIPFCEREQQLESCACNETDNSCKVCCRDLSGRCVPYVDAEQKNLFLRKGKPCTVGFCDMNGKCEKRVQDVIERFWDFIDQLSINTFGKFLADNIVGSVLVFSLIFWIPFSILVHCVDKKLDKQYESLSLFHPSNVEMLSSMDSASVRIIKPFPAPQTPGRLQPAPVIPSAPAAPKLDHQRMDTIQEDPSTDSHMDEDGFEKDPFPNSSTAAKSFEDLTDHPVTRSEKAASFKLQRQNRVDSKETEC
Experiment [17] can be described thus: reduction of Shn3 3'UTR-driven luciferase in osteoblasts – cell-based, Clone20 osteoblasts, firefly luciferase, cherry-picked, dose response (AID 624132).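 Note: firefly luciferase luminescence from reporter carrying the Shn3 3'UTR in osteoblasts.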 It is filed as functional.
The nature of experiment [18]: Shn3 3'UTR reporter signal decrease – cell-based, Clone20 osteoblasts, firefly luciferase, cherry-pick, set 2, Schnurri-3 inhibitor project, dose response (AID 720490).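 Note: actives lower the luminescence signal as inhibitors.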 It is filed as functional.
Experiment [19] concerns the target Matrix metalloproteinase-14 (Homo sapiens, UniProt P50281). Description: Dose Response confirmation of uHTS hits for a small molecule inhibitors of MT1-MMP activation in a fluorescence assay set 1. It counts as functional.
The nature of experiment [20]: loss of viability in HepG2 cells – cell-based, CellTiter-Glo, cherry-picked, cytotoxicity control for Shn3 inhibitor project, dose response (AID 624134). It counts as functional.
The nature of experiment [21]: non-specific 3'UTR reporter inhibition in Clone20-Shn3RL – cell-based, Renilla luciferase, cherry-picked, counter-screen for Shn3 inhibitor project, dose response (AID 624133). It counts as functional. On the technique in general: Counterscreens check selectivity or assay interference.
Experiment [22] is described as follows: viability loss in HEK293 kidney cells – cell-based, cherry-picks, set 5, cytotoxicity control, dose response (AID 1053117). It is filed as functional.
A short description of experiment [23]: viability loss in HepG2 hepatoma cells – cell-based, cherry-picks, set 5, cytotoxicity control, dose response (AID 1053118). It counts as functional.
Experiment [24] in a line: general mammalian cell viability loss – activator set, cherry-pick, cytotoxicity control for miR-122 modulator project, dose response (AID 720690).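 Note: HEK293T human cells scored for general mammalian cytotoxicity.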 It is filed as functional, cell-based.
Experiment [25] can be described thus: activation of miR-122 Renilla sensor silencing – cell-based, Huh7 psiCHECK-miR122, Renilla luciferase, cherry-picked, dose response (AID 651956).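 Note: huh7 hepatoma cells stably carrying a psiCHECK-2 miR-122 sensor plasmid; renilla luciferase signal reporting endogenous miR-122 activity after 48 h compound exposure.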 It counts as functional.
The test system of the next experiment is HEK293. Description: viability loss in HEK293T cells – cell-based, ATP luminescence, cherry-pick samples, cytotoxicity control, dose response (AID 687005).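 Note: cells exposed to compound for 48 hours.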 It counts as functional. The settings on record: Homo sapiens.
Experiment [26] can be described thus: HEK293 Cytotoxicity Assay Measured in Cell-Based System Using Plate Reader - 7071-01_Inhibitor_Dose_CherryPick_Activity_Set2. It counts as functional.
Experiment [27] in a line: Late-stage results from the probe development effort to identify antagonists of arginine vasopressin receptor 1a (AVPR1a): fluorescence-based cell-based dose response OXTR inhibition counterscreen assay. It is filed as functional.
The nature of experiment [28]: Late-stage results from the probe development effort to identify antagonists of arginine vasopressin receptor 1a (AVPR1a): fluorescence-based cell-based dose response AVPR1a inhibition assay. It counts as functional.
The target of a further experiment is Vasopressin V2 receptor (Homo sapiens, UniProt P30518). The experiment can be described thus: Late-stage results from the probe development effort to identify antagonists of arginine vasopressin receptor 1a (AVPR1a): fluorescence-based cell-based dose response AVPR2 inhibition counterscreen assay. It counts as functional.
Chain of Vasopressin V2 receptor (P30518 whole entry): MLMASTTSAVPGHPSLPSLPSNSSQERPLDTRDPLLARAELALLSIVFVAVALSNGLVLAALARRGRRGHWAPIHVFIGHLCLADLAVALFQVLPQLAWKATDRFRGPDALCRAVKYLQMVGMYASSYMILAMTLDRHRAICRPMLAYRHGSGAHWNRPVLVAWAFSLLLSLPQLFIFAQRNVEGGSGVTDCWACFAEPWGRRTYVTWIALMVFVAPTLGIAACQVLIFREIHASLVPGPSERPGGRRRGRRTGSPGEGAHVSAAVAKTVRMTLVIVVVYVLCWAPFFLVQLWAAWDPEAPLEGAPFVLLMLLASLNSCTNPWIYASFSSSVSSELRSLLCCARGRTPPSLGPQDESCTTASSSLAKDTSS
In the next experiment the target is Vasopressin V1b receptor (Homo sapiens, UniProt P47901). Description: Late-stage results from the probe development effort to identify antagonists of arginine vasopressin receptor 1a (AVPR1a): fluorescence-based cell-based dose response AVPR1b inhibition counterscreen assay. It is filed as functional.
Chain of Vasopressin V1b receptor (P47901 whole entry): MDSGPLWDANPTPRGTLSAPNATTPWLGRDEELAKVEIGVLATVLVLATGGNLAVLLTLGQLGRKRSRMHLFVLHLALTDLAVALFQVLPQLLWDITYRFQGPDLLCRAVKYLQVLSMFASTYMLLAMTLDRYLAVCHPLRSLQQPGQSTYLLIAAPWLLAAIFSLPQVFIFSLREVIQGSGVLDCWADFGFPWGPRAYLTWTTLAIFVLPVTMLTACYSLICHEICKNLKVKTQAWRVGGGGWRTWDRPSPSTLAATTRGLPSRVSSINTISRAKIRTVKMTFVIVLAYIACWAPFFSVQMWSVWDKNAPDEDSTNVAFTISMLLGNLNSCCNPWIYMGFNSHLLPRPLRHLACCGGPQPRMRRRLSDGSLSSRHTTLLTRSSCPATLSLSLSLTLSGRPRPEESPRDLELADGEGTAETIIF
A short description of experiment [29]: potency of ADAM10 substrate cleavage blockers – biochemical, QFRET, dose response (AID 743254).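 Note: ADAM10 enzyme with the DM2 quenched FRET peptide as substrate; EDANS fluorescence gain as the protease cuts the substrate; inhibitor potency against ADAM10 proteolytic activity.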
Experiment [30] addresses T2, Disintegrin and metalloproteinase domain-containing protein 17. The experiment can be described thus: inhibition of ADAM17 substrate cleavage – biochemical, quenched FRET substrate, counter-screen for ADAM10 exosite inhibitor project, dose response (AID 743253).
Experiment [31] deals with 1-phosphatidylinositol 4,5-bisphosphate phosphodiesterase gamma-1 (Homo sapiens, UniProt P19174). Description: Counterscreen for inhibitors of phospholipase C isozymes (PLC-B3): Fluorescence-based biochemical high throughput dose response assay to identify inhibitors of phospholipase C isozymes (PLC-gamma1).
Chain of 1-phosphatidylinositol 4,5-bisphosphate phosphodiesterase gamma-1 (P19174 whole entry): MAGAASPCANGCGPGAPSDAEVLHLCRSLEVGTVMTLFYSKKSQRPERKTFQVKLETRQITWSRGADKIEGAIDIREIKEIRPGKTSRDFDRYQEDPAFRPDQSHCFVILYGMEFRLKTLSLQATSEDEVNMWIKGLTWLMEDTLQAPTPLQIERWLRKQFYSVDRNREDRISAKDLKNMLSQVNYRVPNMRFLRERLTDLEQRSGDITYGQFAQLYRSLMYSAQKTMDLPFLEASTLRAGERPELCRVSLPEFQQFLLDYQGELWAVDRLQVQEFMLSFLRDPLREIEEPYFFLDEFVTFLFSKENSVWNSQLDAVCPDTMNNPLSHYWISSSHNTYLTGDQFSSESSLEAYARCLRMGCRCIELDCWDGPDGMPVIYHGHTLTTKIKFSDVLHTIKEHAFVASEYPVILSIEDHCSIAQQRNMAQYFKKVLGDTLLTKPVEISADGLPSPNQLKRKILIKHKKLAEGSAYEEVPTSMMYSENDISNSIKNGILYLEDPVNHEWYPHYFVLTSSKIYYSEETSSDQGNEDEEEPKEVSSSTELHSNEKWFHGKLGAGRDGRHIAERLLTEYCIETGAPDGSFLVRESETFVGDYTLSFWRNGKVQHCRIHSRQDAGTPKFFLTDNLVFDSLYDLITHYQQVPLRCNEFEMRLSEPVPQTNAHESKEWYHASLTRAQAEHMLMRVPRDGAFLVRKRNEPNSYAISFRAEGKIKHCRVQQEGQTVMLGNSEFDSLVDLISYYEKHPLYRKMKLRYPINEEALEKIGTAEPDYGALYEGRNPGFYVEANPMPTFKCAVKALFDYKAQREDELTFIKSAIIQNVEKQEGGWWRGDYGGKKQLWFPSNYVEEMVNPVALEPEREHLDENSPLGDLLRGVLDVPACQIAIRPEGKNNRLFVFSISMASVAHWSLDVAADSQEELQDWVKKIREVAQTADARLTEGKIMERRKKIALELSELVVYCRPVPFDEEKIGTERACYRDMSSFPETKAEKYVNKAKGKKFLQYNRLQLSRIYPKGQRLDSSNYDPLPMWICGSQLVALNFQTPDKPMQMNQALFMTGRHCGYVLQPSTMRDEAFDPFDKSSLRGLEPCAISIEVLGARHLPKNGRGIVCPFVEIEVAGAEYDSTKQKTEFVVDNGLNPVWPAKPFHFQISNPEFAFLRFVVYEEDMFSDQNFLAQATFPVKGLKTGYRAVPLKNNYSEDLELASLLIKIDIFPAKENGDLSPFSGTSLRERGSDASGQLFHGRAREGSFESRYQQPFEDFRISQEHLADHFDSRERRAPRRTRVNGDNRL
The target of experiment [32] is 1-phosphatidylinositol 4,5-bisphosphate phosphodiesterase beta-3 (Homo sapiens, UniProt Q01970). The experiment can be described thus: Fluorescence-based biochemical high throughput dose response assay to identify inhibitors of phospholipase C isozymes (PLC-B3).
Chain of 1-phosphatidylinositol 4,5-bisphosphate phosphodiesterase beta-3 (Q01970 whole entry): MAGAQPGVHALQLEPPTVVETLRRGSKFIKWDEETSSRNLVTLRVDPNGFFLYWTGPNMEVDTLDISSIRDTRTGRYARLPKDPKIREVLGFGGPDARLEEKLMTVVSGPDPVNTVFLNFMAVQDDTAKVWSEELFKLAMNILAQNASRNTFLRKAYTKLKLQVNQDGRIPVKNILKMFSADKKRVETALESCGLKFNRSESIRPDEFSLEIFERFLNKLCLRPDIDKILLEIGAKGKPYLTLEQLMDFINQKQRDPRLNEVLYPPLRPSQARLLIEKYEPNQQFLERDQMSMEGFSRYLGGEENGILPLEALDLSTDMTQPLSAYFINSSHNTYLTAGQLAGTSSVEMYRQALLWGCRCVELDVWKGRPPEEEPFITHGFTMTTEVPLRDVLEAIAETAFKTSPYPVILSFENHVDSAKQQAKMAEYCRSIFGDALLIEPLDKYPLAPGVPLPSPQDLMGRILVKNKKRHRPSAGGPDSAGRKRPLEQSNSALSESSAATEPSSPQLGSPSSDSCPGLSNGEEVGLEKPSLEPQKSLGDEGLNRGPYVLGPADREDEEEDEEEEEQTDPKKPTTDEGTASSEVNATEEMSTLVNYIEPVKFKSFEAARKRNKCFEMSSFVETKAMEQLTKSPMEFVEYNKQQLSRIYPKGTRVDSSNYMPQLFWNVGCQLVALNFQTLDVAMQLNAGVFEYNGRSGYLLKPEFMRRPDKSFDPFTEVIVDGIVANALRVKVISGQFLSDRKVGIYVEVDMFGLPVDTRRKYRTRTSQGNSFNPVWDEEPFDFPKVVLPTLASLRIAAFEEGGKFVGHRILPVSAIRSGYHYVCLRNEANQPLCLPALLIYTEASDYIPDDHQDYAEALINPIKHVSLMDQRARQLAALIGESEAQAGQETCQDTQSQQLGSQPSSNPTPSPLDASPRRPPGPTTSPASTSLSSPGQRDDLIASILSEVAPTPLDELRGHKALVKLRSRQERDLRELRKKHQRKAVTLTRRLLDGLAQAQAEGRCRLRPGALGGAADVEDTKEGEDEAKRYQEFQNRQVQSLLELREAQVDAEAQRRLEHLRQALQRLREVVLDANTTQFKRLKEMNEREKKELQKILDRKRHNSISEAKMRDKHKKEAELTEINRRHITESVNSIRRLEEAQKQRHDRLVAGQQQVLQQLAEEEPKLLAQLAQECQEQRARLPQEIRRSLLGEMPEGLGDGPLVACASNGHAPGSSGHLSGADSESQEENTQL

Chain of fMet-Leu-Phe receptor (P21462 whole entry): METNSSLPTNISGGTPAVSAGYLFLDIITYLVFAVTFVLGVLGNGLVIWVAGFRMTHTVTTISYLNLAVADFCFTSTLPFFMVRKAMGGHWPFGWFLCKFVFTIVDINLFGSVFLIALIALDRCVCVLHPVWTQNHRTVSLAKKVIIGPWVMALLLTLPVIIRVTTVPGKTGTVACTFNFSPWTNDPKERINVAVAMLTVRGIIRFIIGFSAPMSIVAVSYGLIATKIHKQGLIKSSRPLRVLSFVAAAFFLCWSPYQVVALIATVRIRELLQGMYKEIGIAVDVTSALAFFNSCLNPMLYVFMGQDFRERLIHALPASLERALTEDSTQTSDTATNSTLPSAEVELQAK

On to `CC(=O)Nc1ccc(NC(=O)CN(c2ccc(C34CC5CC(CC(C5)C3)C4)cc2)S(C)(=O)=O)cc1`, for which the AC50 in [1] was > 70 µM (inactive); in [2] it was 50.4 µM (active); in experiment [3] it was 2.87 µM (active); in [4] it was 7.68 µM (active) and 9 µM (active); in [5], 5.78 µM (active); in experiment [6], 57.7 µM (active).
Regarding `CCOc1ccc(NC(=O)c2cccc(NC(=O)C3CCCC3)c2)cc1`, in experiment [7], the IC50 was 0.07 µM (active).
For `Fc1ccc(-c2nc3ccccn3c2NCc2ccc3c(c2)OCO3)cc1`, in the experiment “cells”, the AC50 was > 52 µM (inactive).
For the compound `Cc1ccc(S(=O)(=O)N(C)C[C@H]2OCCCC[C@H](C)Oc3ccc(NS(=O)(=O)c4ccc(F)cc4)cc3C(=O)N([C@@H](C)CO)C[C@H]2C)cc1`, the AC50 in experiment [8] was > 30 µM (inactive).
For the compound `CS(=O)(=O)N1CC(=O)N2[C@H](C1)[C@@H](c1ccc(C#Cc3ccc(F)cc3)cc1)[C@@H]2CO`, the AC50 in experiment [9] was > 26 µM (inactive).
Turning to `O=C(NCc1ccccc1)c1ccc(-c2cn[nH]c2)c2ccoc12`, the AC50 in [10] was > 52 µM (inactive); in experiment [11] it was 0.142 µM (active).
Regarding `CCN(CCCc1ccccc1)CCCc1ccccc1` [ALVERINE CITRATE], the Ki on fMet-Leu-Phe receptor is > 66.7 µM (inactive).
With `Cn1c(O)c(N=NC(=O)c2ccco2)c2ccccc21`, the EC50 in [12] was > 67.5 µM (inactive).
Regarding `COc1ccc(N2CCN(C(=O)c3cc4c(s3)-c3ccccc3S(=O)(=O)C4)CC2)cc1`, the IC50 in [13] was > 10 µM (inactive). In addition, the 50% effective concentration (EC50) in experiment [14] is > 50 µM (active).
With `CCOc1ccc(CNC(=S)N/N=C/c2ccc(OC)c(OC)c2)cc1`, the IC50 in experiment [15] and in experiment [16] was > 69.5 µM (inactive) in each case.
`CNc1ccccc1C(C)(C)c1cc(-c2cccc(OC)c2)no1`: the AC50 was 1.92 µM (active) in [17], 1.82 µM (active) in experiment [18], 56.8 µM (active) in experiment [20] and 9.49 µM (active) in [21]. The IC50 in experiment [19] was > 80 µM (inactive).
Take `CO[C@@H]1CN(C)C(=O)c2cc(NC(=O)Nc3cc(Cl)cc(Cl)c3)ccc2OC[C@H](C)NC[C@H]1C`: the AC50 is 12.8 µM (active) in [22]; 10.9 µM (active) in experiment [23]; 29 µM (active) in experiment [11]; 17.6 µM (active) in [24]; 10.1 µM (active) in experiment [25].
As for `C[C@H]1CN([C@@H](C)CO)S(=O)(=O)c2ccc(Br)cc2O[C@@H]1CN(C)S(=O)(=O)c1ccccc1F`, the AC50 (in the experiment on HEK293; in [26]) was 15.7 µM (active) throughout.
As to `COc1ccc(N(CC2CC2)C(=O)N2CCN(c3ccccc3C(F)(F)F)CC2)cc1`, the IC50 in [27] is 0.12 µM (active); in experiment [28], 0.0588 µM (active); at Vasopressin V2 receptor, 8.41 µM (active); on Vasopressin V1b receptor it was 17.9 µM (inactive).
Regarding `COc1ccc(-c2[nH]nc(C)c2-c2cnn(-c3ccccc3)c2)c(O)c1C`, the IC50 in experiment [29] is > 7.72 µM (active); in [30], > 69.5 µM (inactive).
With `COc1cccc(C(=O)Nc2ccc(-n3nncc3C(C)(C)C)cc2)c1`, the IC50 in experiment [31] and in [32] was > 122 µM (inactive) in each case.
